According to PubChem BioAssay AID602210 (Sanford-Burnham Center for Chemical Genomics, 2012):
The source made the active and inactive calls. The rule behind the calls is not given here.

Assay: H9c2 cardiomyoblast viability modulators under 2-DG – cell-based, ATPlite luminescence, rat, set 2, myocardial damage modulator project, dose response (AID 602210)
Settings: H9c2 rat cardiomyoblasts, 2-deoxyglucose-induced death, 2 h

In the case of `COc1ccc(CCn2c(=O)c3cccnc3n(Cc3ccc([N+](=O)[O-])cc3)c2=O)cc1OC`, the IC50 is reported as 14.5 µM (inactive).
For `NC(=O)c1nsc(C(=O)N(c2ccccc2)C(C(=O)NC2CCCC2)c2ccc3ncccc3c2)c1N` (stereo unspecified), the IC50 was 6.5 µM.
In the case of `Cc1ccc(Cn2c(CCNc3nc(-c4ccc(Cl)c([N+](=O)[O-])c4)cs3)nc3cc(C(=O)NCCCO)ccc32)cc1`, the IC50 is reported as > 79 µM (inactive).
In the case of `CCn1c(O)c(/C=N/N=C/c2ccccc2)c2ccc(C3=NNC(=O)CC3)cc21`, the IC50 is reported as 10.7 µM (inactive).
For `NC(=O)COc1ccc2oc(=O)cc(-c3cc4ccccc4o3)c2c1`, the IC50 was 17.2 µM (inactive).
In the case of `COc1ccc(-c2cc(NC=O)c3ncc(-c4ccccc4)n3c2)cc1OC`, the IC50 is reported as > 79 µM (inactive).
For `CCOC(=O)c1nn(-c2cccc(OC)c2)c2nc(Nc3ccccc3)cc(=O)n12`, the IC50 was > 79 µM (inactive).
In the case of `CCOc1ccc2nc(NC(=O)CN3CCC(n4nnc5cc(F)ccc54)CC3)sc2c1`, the IC50 is reported as 15.9 µM (inactive).
With `COc1cccc(-c2cnc3c(NC=O)cc(-c4cccc(C(=O)N(C)C)c4)cn23)c1` the IC50 was > 79 µM (inactive).
With `COC(=O)c1cc2c(-c3ccccc3)cc3ccccn3c-2c1C(=O)OC` the IC50 was 12.7 µM (inactive).
For `COc1cccc(-c2cnc3c(NC(C)=O)cc(-c4cccc(NS(C)(=O)=O)c4)cn23)c1`, the IC50 was 15.4 µM (inactive).
For `CCOC(=O)c1ccccc1OCc1cc(/C=N/NC(=O)c2cccnc2)ccc1OC`, the IC50 was 6.98 µM.
In the case of `Cc1cccc(NC(=O)c2cc(-c3ccco3)nc3ccccc23)n1`, the IC50 is reported as 12.2 µM (inactive).
For `CC(=O)c1ccc(-c2cnc3c(NC=O)cc(-c4ccc(C(=O)NC5CC5)cc4)cn23)cc1`, the IC50 was 6.57 µM.
For `O=C(c1cc(-c2cccnc2)nc2ccc(Br)cc12)N1CCN(c2ncccn2)CC1`, the IC50 was 16.2 µM (inactive).
In the case of `COc1ccc2o/c(=N/NC(=O)c3cccs3)c(C(N)=O)cc2c1`, the IC50 is reported as 21.5 µM (inactive).
For `COc1ccccc1NC(=O)COc1ccc(C(=O)OCC(=O)NC(C)(C)C)cc1OC`, the IC50 was 23.9 µM (inactive).
For `CC(C)(C)OC(=O)NCC12C=CC(O1)C1C(=O)N(Cc3ccccc3)C(=O)C12` (stereo unspecified), the IC50 was 21.5 µM (inactive).
For `CNC(=O)COC(=O)/C=C/c1cn(-c2ccccc2)nc1-c1ccc(C)o1`, the IC50 was 14.6 µM (inactive).
With `COc1ccc(OC)c(N(CC(=O)Nc2cccnc2)S(=O)(=O)c2ccc(OC)c(OC)c2)c1` the IC50 was 32.2 µM (inactive).
In the case of `COC(=O)c1cc(OC)c(OC)cc1NC(=O)c1ccc(C)o1`, the IC50 is reported as 23.4 µM (inactive).
With `C[C@H](NC(=O)c1nc[nH]c1C(=O)NCC(=O)OCc1ccccc1)c1ccccc1` the IC50 was 14.3 µM (inactive).
In the case of `CCOC(=O)C1=C(COC(=O)c2cc(OC)c(OC)c(OC)c2)NC(=O)NC1C` (stereo unspecified), the IC50 is reported as 42.8 µM (inactive).
With `CC(OC(=O)c1cc(-c2cccnc2)nc2ccccc12)C(=O)Nc1ccc2ccccc2c1` (stereo unspecified) the IC50 was 14.3 µM (inactive).
In the case of `CCOC(=O)C1CCN(C(c2cc3c(C)ccc(C)c3[nH]c2=O)c2nnnn2C2CCCCC2)CC1` (stereo unspecified), the IC50 is reported as 19.2 µM (inactive).
In the case of `COC(=O)c1ccccc1NC(=O)/C=C/c1cc(OC)c(OC)c(OC)c1`, the IC50 is reported as > 79 µM (inactive).
For `CN(C(=O)c1sc2nc(N3CCOCC3)c3c(c2c1N)CCCC3)c1ccccc1`, the IC50 was 9.97 µM.
`Cc1ccc(NC(=O)c2nc[nH]c2C(=O)NCCCCCCNC(=O)c2[nH]cnc2C(=O)Nc2ccc(C)cc2)cc1` gave an IC50 of 0.24 µM.
In the case of `Cc1cc(C)c2c(N)c(C(=O)N/N=C/c3cccnc3)sc2n1`, the IC50 is reported as 25.5 µM (inactive).
In the case of `CCC(=O)N1CCN(c2ccccc2NC(=O)c2ccc(-c3cccc([N+](=O)[O-])c3)o2)CC1`, the IC50 is reported as > 79 µM (inactive).
With `CCC(Oc1ccccc1)C(=O)Nc1ccccc1C(=O)N1CCCCC1` (stereo unspecified) the IC50 was 36.4 µM (inactive).
With `O=C(Nc1ccc2nc(N3CCOCC3)sc2c1)c1cc2ccccc2o1` the IC50 was > 79 µM (inactive).
For `CCc1nc(N2CCN(C(=O)c3ccco3)CC2)c2oc3ccccc3c2n1`, the IC50 was 24.7 µM (inactive).
With `COc1ccccc1OP(=O)(Nc1cccnc1)Oc1ccccc1OC` the IC50 was 8.19 µM.
With `Cc1ncc(CO)c2cc(C(=O)Nc3ccccc3Cl)c(=Nc3cccc(C(N)=O)c3)oc12` the IC50 was 2.43 µM.
In the case of `O=C/C(=C\Nc1ccccn1)c1nc2cc(Cl)ccc2o1`, the IC50 is reported as > 79 µM (inactive).
For `COc1ccc(CCNC(=O)c2cc3c(C)nccc3[nH]c2=O)cc1OC`, the IC50 was 20.7 µM (inactive).
With `O=C(CN1CCN(c2ccccn2)CC1)Nc1ccc([N+](=O)[O-])cc1C(=O)Nc1ccccc1F` the IC50 was 12.8 µM (inactive).
In the case of `C#CCOc1nc(Nc2cccc([N+](=O)[O-])c2)nc(OCC#C)n1`, the IC50 is reported as 24.9 µM (inactive).
For `COc1cccc(C(=O)CSc2nnc(-c3cc(OC)c(OC)c(OC)c3)o2)c1`, the IC50 was > 79 µM (inactive).
With `CCOCc1c(C(=O)NC2=Nc3ccccc3NC(CC)=C2C(=O)OCC)oc2ccccc12` the IC50 was 4.85 µM.
In the case of `CC(C)(C)OC(=O)NCc1ccc(NC(=O)c2nc[nH]c2C(=O)NCCCCCCNC(=O)c2[nH]cnc2C(=O)Nc2ccc(CNC(=O)OC(C)(C)C)cc2)cc1`, the IC50 is reported as > 79 µM (inactive).
With `COC(=O)c1ccc(N)c(N=CC2=C(O)CC(C)(C)CC2=O)c1` the IC50 was 11.9 µM (inactive).
For `COc1cc(/C=C/c2nc3ccccc3c(=O)n2-c2ccc(O)cc2)ccc1O`, the IC50 was > 79 µM (inactive).
With `COC(=O)C1=C(C)N(CCc2ccc(OC)cc2)C(=O)C1` the IC50 was 33.5 µM (inactive).
Work on `COc1cccc(/C=N/Nc2nc3ccccc3n3cnnc23)c1` yielded an IC50 of 3.49 µM.
With `O=C(NC1CCCCC1)C(c1ccc2ncccc2c1)N(Cc1cccs1)C(=O)c1cccs1` (stereo unspecified) the IC50 was 27.4 µM (inactive).
With `O=C(/C=C\c1cn(-c2ccccc2)nc1-c1ccc2c(c1)OCCO2)N1CCOCC1` the IC50 was > 79 µM (inactive).
With `Cn1c2ccccc2c2cc(/C=N/NC(=O)c3cc(O)ccc3O)ccc21` the IC50 was > 79 µM (inactive).
For `COc1ccc2occ(C(=O)c3coc4ccc(O)c(CN(C)C)c34)c2c1`, the IC50 was 68 µM (inactive).
For `COc1ccc(-c2csc(NC(=O)c3ccc(OCC(=O)N4CCOCC4)c(OC)c3)n2)cc1OC`, the IC50 was 10.9 µM (inactive).
In the case of `NC(=O)c1ccc(Nc2nnc(-c3ccc(O)cc3)c3ccccc23)cc1`, the IC50 is reported as 34.2 µM (inactive).
With `CCOC(=O)c1nc(Nc2ccc(C(=O)OC)cc2)c2ccccc2n1` the IC50 was > 79 µM (inactive).
With `Cc1c(/C=N/NC(=O)c2ccc(O)cc2)c2ccccn2c1C(=O)c1ccc(F)cc1` the IC50 was > 79 µM (inactive).
In the case of `COc1cc(/C=C/C(=O)Nc2ccc3nc4n(c(=O)c3c2)CCCC4)cc(OC)c1OC`, the IC50 is reported as 20.6 µM (inactive).
With `CC12CCC3C(CCC4CC(O)CCC43C)C1CC(O)C2` (stereo unspecified) the IC50 was 10.4 µM (inactive).
With `CC(=NO)C1CCC2C3CCC4CC(=NO)CCC4(C)C3C(C)(O)CC12C` (stereo unspecified) the IC50 was 22 µM (inactive).
With `CCOC(=O)C1=C(C)N=c2s/c(=C\c3ccncc3)c(=O)n2C1c1ccc2c(c1)OCO2` (stereo unspecified) the IC50 was 30.3 µM (inactive).
`COc1ccc(-n2nc(C(=O)NCC(=O)Nc3cc(OC)c(OC)c(OC)c3)c3ccccc3c2=O)cc1Cl` showed an IC50 of 7.79 µM.
For `COc1ccc(CCNc2nc(-c3cccnc3)nc3ccccc23)cc1OC`, the IC50 was 8.24 µM.
`CCN(CC)S(=O)(=O)c1ccc(Nc2nc3ccccc3n3nnnc23)cc1` gave an IC50 of 7.9 µM.
In the case of `COc1ccc(-c2cc3nc(C)cc(N4CCN(C(=O)c5ccoc5)CC4)n3n2)cc1`, the IC50 is reported as > 79 µM (inactive).
For `COC(=O)c1cc(NC(=O)Nc2cc(OC)ccc2OC)cc(C(=O)OC)c1`, the IC50 was > 79 µM (inactive).
`COc1ccc(C(=O)Nc2cccc(NC(=O)c3ccc(OC)c(OC)c3)n2)cc1OC` showed an IC50 of 5.47 µM.
For `O=C(CNC(=O)c1nc[nH]c1C(=O)NCc1ccccc1)OCc1ccccc1`, the IC50 was 5.21 µM.
For `CCOc1ccccc1Nc1nnc(SCc2nnc(-c3cc(OC)c(OC)c(OC)c3)o2)s1`, the IC50 was 12.8 µM (inactive).
With `COc1cccc(-c2cnc3c(NC=O)cc(-c4cc(OC)c(OC)c(OC)c4)cn23)c1` the IC50 was 14.2 µM (inactive).
With `CC(C)(C)OC(=O)C[C@@H]1C/C=C\C[C@@H](CC(=O)N[C@H](CO)Cc2ccccc2)C(=O)NC[C@@H](c2ccccc2)OC1=O` the IC50 was 64 µM (inactive).
In the case of `Cc1cc(NC(=O)C2CCCCC2)nc2c1c(=O)oc1ccccc12`, the IC50 is reported as 26.8 µM (inactive).
For `CC(=O)Nc1cc(-c2ccccc2)cn2c(-c3cccc(C(C)=O)c3)cnc12`, the IC50 was 16 µM (inactive).
For `COc1ccc(-c2nc(NC(=O)c3ccc(OCC(=O)N4CCOCC4)c(OC)c3)sc2C)cc1`, the IC50 was 23.7 µM (inactive).
For `COc1ccc(-c2nn3c(-c4ccco4)nnc3s2)cc1OC`, the IC50 was 28.2 µM (inactive).
With `CC(=O)c1ccc(-c2[nH]c3ccccc3c2CCN2C(=O)c3ccccc3C2=O)cc1` the IC50 was > 79 µM (inactive).
In the case of `NC(=O)c1nsc(C(=O)N(c2ccccc2F)C(C(=O)NCc2ccccc2)c2ccc(O)cc2)c1N` (stereo unspecified), the IC50 is reported as 3.04 µM.
In the case of `O=C(NCC1CCCO1)C(c1ccc(F)cc1)N(C(=O)Cn1nnc(-c2ccc(F)cc2)n1)c1cccc(O)c1` (stereo unspecified), the IC50 is reported as 18.3 µM (inactive).
With `CCOc1ccc(C(C(=O)NC2CCCC2)N(C(=O)c2snc(C(N)=O)c2N)c2cccc(O)c2)cc1` (stereo unspecified) the IC50 was 6.74 µM.
With `CC(=O)c1ccc(-c2cnc3c(NC=O)cc(-c4cccc(C(=O)N(C)C)c4)cn23)cc1` the IC50 was 12.2 µM (inactive).
Work on `COc1cc(/C=C/c2nnc3c4ccccc4ncn23)cc(OC)c1OC` yielded an IC50 of 7.24 µM.
`Fc1ccc(-n2cc(-c3ccccc3)c3c(N4CCOCC4)ncnc32)cc1` showed an IC50 of 6.7 µM.
For `COc1ccc(-c2cc3nc(-c4ccccc4)cc(N4CCN(C(=O)c5ccoc5)CC4)n3n2)cc1`, the IC50 was 7.21 µM.
With `Cc1nn(-c2ccccc2)nc1C(=O)Nc1cccc(C(=O)NC2CC2)c1` the IC50 was 18.6 µM (inactive).
For `CCOC(=O)C1=C(C)NC(C)=C(C(=O)OCC)C1C(=O)OCC(=O)NC1CCCCC1`, the IC50 was 7.05 µM.
With `O=C(NCc1ccco1)c1cc(-c2cccnc2)nc2ccc(Cl)cc12` the IC50 was > 79 µM (inactive).
For `CCC(C)N1C(=O)S/C(=C/c2ccc3c(c2)n(C)c(=O)n3C)C1=O` (stereo unspecified), the IC50 was > 79 µM (inactive).
In the case of `O=C(Nc1cccc(NC(=O)c2ccc([N+](=O)[O-])o2)c1)c1ccco1`, the IC50 is reported as 3.85 µM.
In the case of `COc1ccc(OC)c(Nc2nc(N)c([N+](=O)[O-])c(N3CCOCC3)n2)c1`, the IC50 is reported as 27.5 µM (inactive).
With `COc1cc(OC)cc(C(=O)Nc2ccc(-c3nc4ccccc4o3)cc2)c1` the IC50 was 13.7 µM (inactive).
For `Cc1ccc(-n2cc(-c3ccccc3)c3c(N4CCOCC4)ncnc32)cc1`, the IC50 was 8.37 µM.
With `COc1cc(NC(=O)c2ccc(-c3cn[nH]c3)c3ccoc23)cc(OC)c1OC` the IC50 was 15.4 µM (inactive).
With `C[C@H]1Cn2cnc(C(=O)N[C@@H](Cc3c[nH]c4ccccc34)C(=O)OC(C)(C)C)c2C(=O)N1` the IC50 was 24.7 µM (inactive).
For `Cc1ccc(C)c(C(=O)Nc2cc(C)nn2-c2nc(C)cc(C)n2)c1`, the IC50 was 30.1 µM (inactive).
